These results are taken from patent publication US20220372013A2, “PIPERIDINE-2,6-DIONE DERIVATIVES AND CROHN'S DISEASE TREATING” (Tianjin Hemay Pharmaceutical Sci-Tech Co., Ltd, priority 2016, published 2022).

Like-named read-outs stand apart in the source and are kept apart here. Marks after values point to notes of the source that are not given here.

The test system of data set [1] is DNBS-Induced Inflammatory Bowel Disease Models in Rats. The experiment in a line: Biological Example 4: DNBS-induced inflammatory bowel disease models in rats. The conditions noted are these: 30 mg/Kg i.g. qd × 7; for Adhesion Degree of Colon / Colon weight to length ratio / Ulcer area of colon / inhibition in vivo at 30 mg/kg: day 7; for Body weight: Mean ± SD; for inhibition in vivo at 30 mg/kg: Rattus norvegicus, po, 168 h. It counts as in vivo, Wistar rats. As for the experimental part:
102 male Wistar rats were fasted for 72 hours. A 5% glucose injection was administered subcutaneously twice during fasting. 88 rats with normal conditions and moderate body weight were selected from the fasting rats. The animals were randomly divided into 11 groups according to the body weight (see Table 11. Grouped Table).
The animals were anesthetized with ether after 72 hours fasting. A specially made gavage device was slowly inserted into the enteric cavity at 8 cm from the anus. The model control group and each test group were administered with 0.5 mL of 50 mg/mL DNBS in 30% ethanol solution. The normal control group was administered with 0.5 mL of 30% ethanol solution. The animals were inverted in anesthesia for 15 minutes. The day when the model was prepared was day 0 of the experiment. After 4 hours of DNBS induction, the corresponding drug or the corresponding volume of 1% CMC-Na was administered once per day. On day 7 of the experiment, the animals were euthanized to score the colon adhesion degree, measure the length of colon and ulcer area, weigh colon and calculate the colon weight to length ratio.
One-way ANOVA analysis of the length of colon and colon weight per length of rats was performed by SPSS22. Statistical analyses between groups were performed. The adhesion degree was scored. Mann-Whitney U non-parametric test was performed on ulcer area. Statistical analyses between groups were performed.
Calculation Formula of Inhibitory rate of weight increase per length: (Colon weight to length ratio in model group−Colon weight to length ratio in administration group)/(Colon weight to length ratio in model group−Colon weight to length ratio in blank group)

Another data set relates to mice. The experiment in a line: Biological Example 5: acute toxicity experiment of single oral administration in mice. In kind it is in vivo. The conditions noted are these: single oral 1000 mg/Kg, Mean ± SD. As for the experimental part: The mice were fasted one day before the experiment. On the day of the experiment, 6 mice (ICR mice, body weight of 19-21 g, three females and three males) were selected in each experiment group. First of all, one female and one male were selected to orally give 1000 mg/Kg, and observed for 5-10 minutes. If there were no obvious side effects, the remaining 4 animals were orally given the same dose, and observed for 10-15 minutes. If no animal died, the animals were placed in a box to balancedly feed for 7 days. The state was observed and the body weight was recorded daily.
Observation Indexes within 0-15 Minutes after Administration
Activity: restlessness, hyperactivity
Nervous system response: tremor, spasm, convulsion, ataxia, posture abnormality, etc.
Autonomic nerve: exophthalmos, salivation, tears, urination (hematuria), diarrhea, piloerection, breathing, etc.
State of Animal: lethargy, hyperactivity, excitement, hair loss, diarrhea, abnormal behavior, death, etc.

Where [2] appears, read: read-out: Inhibitory rate of colon adhesion.
The mark [3] stands for this setting: read-out: Inhibitory rate of ulcer area of colon.
Setting [4] is: read-out: Inhibitory rate of weight increase per length.

With `COCCN1C(=O)CCC(N2C(=O)c3c(F)c(F)c(F)c(F)c3C2=O)C1=O` (stereo not shown) [Example 5, 4,5,6,7-tetrafluoro-2-(1-(2-methoxyethyl)-2,6-dioxopiperidin-3-yl)isoindolin-1,3-dione], the “Adhesion Degree of Colon” value in data set [1] was found to be 0.8 ± 0.5 point. Also, the “Colon weight to length ratio” value in data set [1] is recorded as 99 ± 14 mg/cm. The “Ulcer area of colon” value in data set [1] amounted to 0.2 ± 0.5 cm^2. Further, the Body weight was 126.7 ± 8.9 g in data set [1] (Day 1); 125.0 ± 11.0 g in data set [1] (Day 2); 126.9 ± 14.0 g in data set [1] (Day 3); 133.9 ± 13.3 g in data set [1] (Day 4); 141.9 ± 14.9 g in data set [1] (Day 5); 146.9 ± 13.9 g in data set [1] (Day 6). This compound also showed a Body weight in data set [1] (Day 7) of 159.7 ± 14.3 g. The inhibition in vivo at 30 mg/kg was found to be 62.2% in data set [1] (setting [2]), 91.7% in data set [1] (setting [3]) and 74.1% in data set [1] (setting [4]).
As to `COCCN1C(=O)CCC(F)(N2C(=O)c3cccc(N)c3C2=O)C1=O` (stereo not shown) [Example 14, 4-amino-2-(1-(2-methoxyethyl)-3-fluoro-2,6-dioxopiperidin-3-yl)isoindolin-1,3-dione], the “Adhesion Degree of Colon” value in data set [1] was found to be 0.8 ± 0.5 point. Moreover, the “Colon weight to length ratio” value in data set [1] is given as 102 ± 18 mg/cm. Also, the “Ulcer area of colon” value in data set [1] is recorded as 0.1 ± 0.4# cm^2. Besides, the Body weight in data set [1] (Day 1) is recorded as 126.2 ± 8.7 g; in data set [1] (Day 2), 125.1 ± 10.5 g; in data set [1] (Day 3), 129.5 ± 17.8 g; in data set [1] (Day 4), 136.5 ± 19.7 g; in data set [1] (Day 5), 146.4 ± 19.4 g; in data set [1] (Day 6) it was 147.6 ± 19.9 g. Besides, the Body weight in data set [1] (Day 7) stood at 165.7 ± 20.8 g. In addition, the inhibition in vivo at 30 mg/kg worked out at 62.2% in data set [1] (setting [2]), 95.8% in data set [1] (setting [3]) and 70.6% in data set [1] (setting [4]).
On to `CCOCCN1C(=O)CCC(N2C(=O)c3cccc(F)c3C2=O)C1=O` (stereo not shown) [Example 20, 4-fluoro-2-(1-(2-ethoxyethyl)-2,6-dioxopiperidin-3-yl)isoindolin-1,3-dione], for which the “Daily Body Weight” value with mice (Female mice, Day 1) came out at 18.7 ± 0.4 g; in the data set on mice (Female mice, Day 2), 21.6 ± 1.0 g; in the data set on mice (Female mice, Day 3), 22.1 ± 1.0 g; in the data set on mice (Female mice, Day 4) it was 22.1 ± 1.0 g; in the data set with mice (Female mice, Day 5), 23.0 ± 1.4 g; in the data set on mice (Female mice, Day 6), 23.3 ± 0.2 g. For the same compound, the “Daily Body Weight” value is given as 23.7 ± 0.8 g in the data set with mice (Female mice, Day 7); 18.8 ± 1.0 g in the data set on mice (Male mice, Day 1); 24.0 ± 1.1 g with mice (Male mice, Day 2); 25.3 ± 1.2 g in the data set with mice (Male mice, Day 3); 25.3 ± 1.2 g in the data set with mice (Male mice, Day 4); 26.7 ± 1.2 g with mice (Male mice, Day 5). For the same compound, the “Daily Body Weight” value in the data set on mice (Male mice, Day 6) worked out at 29.0 ± 1.1 g; in the data set on mice (Male mice, Day 7), 29.3 ± 0.7 g.
